Among the data in US7803821B2, “Fungicide N-cycloalkyl-carboxamide, thiocarboxamide and N-substituted-carboximidamide derivatives” (Bayer Cropscience SA, priority 2006, dated 2010) are logP and chromatographic logP values, retold here.

One data set is described as follows: log P by HPLC on reversed-phase column (C18), EEC Directive 79/831 Annex V.A8. In kind it is physicochemical. To be noted: C18, 40° C., 0.1% aqueous formic acid and acetonitrile, gradient 10% to 90% acetonitrile. How it is done:
Temperature: 40° C.; Mobile phases: 0.1% aqueous formic acid and acetonitrile; linear gradient from 10% acetonitrile to 90% acetonitrile.
Compound `COc1ccc(CN(C(=O)c2occc2C)C2CC2)cn1` [Example 59] returned a logP of 2.46.

The compound `COc1ccc(CN(C(=O)c2c(C)nn(C)c2F)C2CC2)cn1` [Example 60] returned a logP of 1.64.

The compound `COc1ccc(CN(C(=O)c2cn(C)nc2C(F)F)C2CC2)cn1` [Example 61] registered a logP of 1.8.

`COc1ccc(CN(C(=O)c2ocnc2C)C2CC2)cn1` [Example 62] had a logP of 1.72. The logP values of the last two compounds are within 0.2 log units of each other.

`COc1ccc(CN(C(=O)c2cc(C)on2)C2CC2)cn1` [Example 63]: the log partition coefficient (logP) was 2.08.

`COc1ccc(CN(C(=O)c2cc(C)n(C)n2)C2CC2)cn1` [Example 64] gave a logP of 1.74.

Compound `Cn1cc(C(=O)N(Cc2ccc(Cl)nc2)C2CC2)c(C(F)(F)F)n1` [Example 65] gave a log partition coefficient (logP) of 2.02.

Compound `O=C(c1ccsc1I)N(Cc1ccc(Cl)nc1)C1CC1` [Example 66] showed a logP of 2.67.

The compound `Cn1cc(C(=O)N(Cc2ccc(Cl)nc2)C2CC2)c(C(F)F)n1` [Example 72] showed a logP of 1.97.

`Cn1cc(C(=S)N(Cc2ccc(Cl)nc2)C2CC2)c(C(F)F)n1` [Example 73] registered a logP of 2.58.

Consider `COc1nn(C)cc1C(=O)N(Cc1ccc(Cl)nc1)C1CC1` [Example 74], for which the logP was determined as 1.56.

With `Cc1nc(C(F)(F)F)ccc1CN(C(=O)c1cn(C)nc1C(F)(F)F)C1CC1` [Example 85], the logP is 2.82.

As for `Cc1nc(C(F)(F)F)ccc1CN(C(=O)c1cn(C)nc1C(F)F)C1CC1` [Example 87], the logP is recorded as 2.51.

Turning to `COc1nn(C)cc1C(=O)N(Cc1ccc(C(F)(F)F)nc1C)C1CC1` [Example 88], the logP stood at 2.02.

Turning to `O=C(c1ccsc1I)N(Cc1c(Cl)cncc1Cl)C1CC1` [Example 97], the lipophilicity (logP) was determined as 3.21.

With `Cc1nc(C(=O)N(Cc2c(Cl)cncc2Cl)C2CC2)c(C)o1` [Example 99], the logP amounted to 2.18.

Regarding `Cc1nn(C)cc1C(=O)N(Cc1c(Cl)cncc1Cl)C1CC1` [Example 100], the logP was determined as 1.8.

For the compound `Cc1ccoc1C(=O)N(Cc1c(Cl)cncc1Cl)C1CC1` [Example 101], the logP is 2.87.

Compound `Cc1nn(C)c(F)c1C(=O)N(Cc1c(Cl)cncc1Cl)C1CC1` [Example 102] yielded a lipophilicity (logP) of 2.01.

`Cn1cc(C(=O)N(Cc2c(Cl)cncc2Cl)C2CC2)c(C(F)F)n1` [Example 103] returned a logP of 1.88.

The compound `Cn1cc(C(=S)N(Cc2c(Cl)cncc2Cl)C2CC2)c(C(F)F)n1` [Example 104] displayed a logP of 2.93.

Turning to `Cc1ncoc1C(=O)N(Cc1c(Cl)cncc1Cl)C1CC1` [Example 105], the logP was 2.04.

Consider `Cc1cc(C(=O)N(Cc2c(Cl)cncc2Cl)C2CC2)no1` [Example 106], for which the logP worked out at 2.4.

`Cc1cc(C(=O)N(Cc2c(Cl)cncc2Cl)C2CC2)nn1C` [Example 107] returned a logP of 2.

`COc1ccnc(CN(C(=O)c2cn(C)nc2C(F)(F)F)C2CC2)c1OC` [Example 108] displayed a logP of 1.18.

Compound `COc1ccnc(CN(C(=O)c2ccsc2I)C2CC2)c1OC` [Example 109] displayed a logP of 1.47.

`COc1ccnc(CN(C(=O)c2sc(C)nc2C(F)F)C2CC2)c1OC` [Example 110]: the logP was determined as 1.2.

`COc1ccnc(CN(C(=O)c2nn(C)nc2C(F)(F)F)C2CC2)c1OC` [Example 111] returned a logP of 1.44.

For `COc1ccnc(CN(C(=O)c2cn(C)cc2C(F)(F)F)C2CC2)c1OC` [Example 112], the lipophilicity (logP) stood at 1.32.

In turn, `COc1ccnc(CN(C(=O)c2cn(C)nc2C(F)F)C2CC2)c1OC` [Example 114] displayed a log partition coefficient (logP) of 1.05.

On to `COc1ccnc(CN(C(=O)c2cn(C)nc2OC)C2CC2)c1OC` [Example 115], for which the log partition coefficient (logP) worked out at 0.56.

Staying with this data set, now noted: reversed-phase HPLC column (C18), C18, 40° C., 0.1% aqueous formic acid and acetonitrile, gradient 10% to 90% acetonitrile.
`COc1ccnc(CN(C(=O)c2c(C)nn(C)c2F)C2CC2)c1OC` [Example 113, N-cyclopropyl-N-[(3,4-dimethoxypyridin-2-yl)methyl]-5-fluoro-1,3-dimethyl-1H-pyrazole-4-carboxamide] displayed a chromatographic logP of 1.65.
